Legend:
Test in all cases: weeding effect in post-emergence stage
Type in all cases: in vivo
Beckmannia syzigachne = system: Beckmannia syzigachne
From the text: (§1) The activity level criteria for plant damage (i.e., growth control rate) are as follows: • Level 5: growth control rate is above 85%; • Level 4: growth control rate is greater than or equal to 60% and less than 85%; • Level 3: growth control rate is greater than or equal to 40% and less than 60%; • Level 2: growth control rate is greater than or equal to 20% and less than 40%; • Level 1: growth control rate is greater than or equal to 5% and less than 20%; • Level 0: growth control rate is less than 5%.
(§2) The above growth control rates are fresh weight control rates.
(§3) Experiment on weeding effect in post-emergence stage:
(§4) Monocotyledonous and dicotyledonous weed seeds (Descurainia sophia, Capsella bursa-pastoris, Abutilon theophrasti, Galium aparine, Stellaria media, Lithospermum arvense, Rorippa indica, Alopecurus aequalis, Alopecurus japonicus, Beckmannia syzigachne, Sclerochloa dura, Conyza Canadensis, Phleum paniculatum, Veronica didyma Tenore, Bromus japonicus, Aegilops tauschii, Phalaris arundinacea, Amaranthus retroflexus, Chenopodium album, Commelina communis, Sonchus arvensis, Convolvulus arvensis, Cirsium setosum, Solanum nigrum, Acalypha australis, Digitaria sanguinalis, Echinochloa crusgalli, Setaria viridis, Setaria glauca, Leptochloa chinensis, Monochoria vaginalis, Sagittaria trifolia, Scirpus juncoides, Cyperus rotundus, Cyperus iria, Cyperus difformis, Fimbristylis, Portulaca oleracea, Xanthium sibiricum, Pharbitis nil, Conyza japonica, etc.) and major crop seeds (wheat, corn, rice, soybean, cotton, oilseed rape, millet, sorghum, potato, sesame, ricinus, etc.) were placed in plastic pots filled with soil, then covered with 0.5-2 cm of soil, allowed to grow in a good greenhouse environment. After 2 weeks of sowing, the test plants were treated in the 2-3 leaf stage. The tested compounds of the present invention were respectively dissolved in acetone, then added with Tween 80 and 1.5 liter/ha of emulsifiable concentrate of methyl oleate as synergist, diluted with a certain amount of water to obtain a solution with a certain concentration, and sprayed with a spray tower onto the plants. After the application, the plants were cultured for 3 weeks in the greenhouse, and then the experimental results of the weeding were counted. The doses of the used compounds were 500, 250, 125, 60, 15, 7.5 g a.i./ha, and the averages were obtained by repeating for three times.

Rorippa indica = system: Rorippa indica
From the text: as §1, §2, §3, §4

Alopecurus japonicus = system: Alopecurus japonicus
From the text: as §1, §2, §3, §4

Conyza japonica = system: Conyza japonica
From the text: as §1, §2, §3, §4

Structure (SMILES) | weeding effect in post-emergence stage, Beckmannia syzigachne (activity level) (Beckmannia syzigachne; dose 125 g a.i./ha) | weeding effect in post-emergence stage, Rorippa indica (activity level) (Rorippa indica; dose 125 g a.i./ha) | weeding effect in post-emergence stage, Alopecurus japonicus (activity level) (Alopecurus japonicus; dose 125 g a.i./ha) | weeding effect in post-emergence stage, Conyza japonica (activity level) (Conyza japonica; dose 125 g a.i./ha) | weeding effect in post-emergence stage, Beckmannia syzigachne (activity level) (Beckmannia syzigachne; dose 15 g a.i./ha) | weeding effect in post-emergence stage, Rorippa indica (activity level) (Rorippa indica; dose 15 g a.i./ha) | weeding effect in post-emergence stage, Alopecurus japonicus (activity level) (Alopecurus japonicus; dose 15 g a.i./ha) | weeding effect in post-emergence stage, Conyza japonica (activity level) (Conyza japonica; dose 15 g a.i./ha)
CCOC(=O)COC(C)C1(C(=O)OCC)CC(c2cc(-n3c(=O)n(C)c(=S)n(C)c3=O)c(F)cc2Cl)=NO1 (mixture of isomers) [Compound 55] | 5 (Level 5: growth control rate is above 85%) | 5 (Level 5: growth control rate is above 85%) | 5 (Level 5: growth control rate is above 85%) | 5 (Level 5: growth control rate is above 85%) |  |  |  | 
CCOC(=O)C1(CC)CC(c2cc(-n3c(=O)n(C)c(=S)n(C)c3=O)c(F)cc2Cl)=NO1 (racemic) [Compound 3] | 5 (Level 5: growth control rate is above 85%) | 5 (Level 5: growth control rate is above 85%) | 5 (Level 5: growth control rate is above 85%) | 5 (Level 5: growth control rate is above 85%) | 5 (Level 5: growth control rate is above 85%) | 5 (Level 5: growth control rate is above 85%) | 5 (Level 5: growth control rate is above 85%) | 5 (Level 5: growth control rate is above 85%)
CCCC1(C(=O)OCC)CC(c2cc(-n3c(=O)n(C)c(=S)n(C)c3=O)c(F)cc2Cl)=NO1 (racemic) [Compound 4] | 5 (Level 5: growth control rate is above 85%) | 5 (Level 5: growth control rate is above 85%) | 5 (Level 5: growth control rate is above 85%) | 5 (Level 5: growth control rate is above 85%) | 4 (Level 4: growth control rate is greater than or equal to 60% and less than 85%) | 5 (Level 5: growth control rate is above 85%) | 5 (Level 5: growth control rate is above 85%) | 4 (Level 4: growth control rate is greater than or equal to 60% and less than 85%)
CCOC(=O)C1(C(C)C)CC(c2cc(-n3c(=O)n(C)c(=S)n(C)c3=O)c(F)cc2Cl)=NO1 (racemic) [Compound 5] | 5 (Level 5: growth control rate is above 85%) | 5 (Level 5: growth control rate is above 85%) | 5 (Level 5: growth control rate is above 85%) | 5 (Level 5: growth control rate is above 85%) | 4 (Level 4: growth control rate is greater than or equal to 60% and less than 85%) | 5 (Level 5: growth control rate is above 85%) | 5 (Level 5: growth control rate is above 85%) | 4 (Level 4: growth control rate is greater than or equal to 60% and less than 85%)
CCCCC1(C(=O)OCC)CC(c2cc(-n3c(=O)n(C)c(=S)n(C)c3=O)c(F)cc2Cl)=NO1 (racemic) [Compound 6] | 5 (Level 5: growth control rate is above 85%) | 5 (Level 5: growth control rate is above 85%) | 5 (Level 5: growth control rate is above 85%) | 5 (Level 5: growth control rate is above 85%) | 5 (Level 5: growth control rate is above 85%) | 5 (Level 5: growth control rate is above 85%) | 5 (Level 5: growth control rate is above 85%) | 5 (Level 5: growth control rate is above 85%)
CCOC(=O)C1(C2CC2)CC(c2cc(-n3c(=O)n(C)c(=S)n(C)c3=O)c(F)cc2Cl)=NO1 (racemic) [Compound 17] | 5 (Level 5: growth control rate is above 85%) | 5 (Level 5: growth control rate is above 85%) | 5 (Level 5: growth control rate is above 85%) | 5 (Level 5: growth control rate is above 85%) | 5 (Level 5: growth control rate is above 85%) | 5 (Level 5: growth control rate is above 85%) | 5 (Level 5: growth control rate is above 85%) | 5 (Level 5: growth control rate is above 85%)
CCOC(=O)C1(CC2CC2)CC(c2cc(-n3c(=O)n(C)c(=S)n(C)c3=O)c(F)cc2Cl)=NO1 (racemic) [Compound 26] | 5 (Level 5: growth control rate is above 85%) | 5 (Level 5: growth control rate is above 85%) | 5 (Level 5: growth control rate is above 85%) | 5 (Level 5: growth control rate is above 85%) | 5 (Level 5: growth control rate is above 85%) | 5 (Level 5: growth control rate is above 85%) | 5 (Level 5: growth control rate is above 85%) | 5 (Level 5: growth control rate is above 85%)
CCOC(=O)C1(CBr)CC(c2cc(-n3c(=O)n(C)c(=S)n(C)c3=O)c(F)cc2Cl)=NO1 (racemic) [Compound 31] | 5 (Level 5: growth control rate is above 85%) | 5 (Level 5: growth control rate is above 85%) | 5 (Level 5: growth control rate is above 85%) | 5 (Level 5: growth control rate is above 85%) |  |  |  | 
CCOC(=O)C1(C(F)(F)F)CC(c2cc(-n3c(=O)n(C)c(=S)n(C)c3=O)c(F)cc2Cl)=NO1 (racemic) [Compound 33] | 5 (Level 5: growth control rate is above 85%) | 5 (Level 5: growth control rate is above 85%) | 5 (Level 5: growth control rate is above 85%) | 5 (Level 5: growth control rate is above 85%) |  |  |  | 
CCOC(=O)C1(CCF)CC(c2cc(-n3c(=O)n(C)c(=S)n(C)c3=O)c(F)cc2Cl)=NO1 (racemic) [Compound 34] | 5 (Level 5: growth control rate is above 85%) | 5 (Level 5: growth control rate is above 85%) | 5 (Level 5: growth control rate is above 85%) | 5 (Level 5: growth control rate is above 85%) | 5 (Level 5: growth control rate is above 85%) | 5 (Level 5: growth control rate is above 85%) | 5 (Level 5: growth control rate is above 85%) | 5 (Level 5: growth control rate is above 85%)
CCOC(=O)C1(CC(F)F)CC(c2cc(-n3c(=O)n(C)c(=S)n(C)c3=O)c(F)cc2Cl)=NO1 (racemic) [Compound 35] | 5 (Level 5: growth control rate is above 85%) | 5 (Level 5: growth control rate is above 85%) | 5 (Level 5: growth control rate is above 85%) | 5 (Level 5: growth control rate is above 85%) |  | 5 (Level 5: growth control rate is above 85%) |  | 4 (Level 4: growth control rate is greater than or equal to 60% and less than 85%)
